# Experimental data: patent publication US20080070865A1, “TRIPHENYLPHOSPHINE OXIDE DERIVATIVES AND USES THEREOF” (Redpoint Bio Corporation, priority 2006, published 2008)
# Biological target: T1, human TRPM5 ion channel (Homo sapiens, UniProt Q9NZQ8)
# T1 construct: expressed in transfected cells
# T1 sequence (Q9NZQ8 1-1165): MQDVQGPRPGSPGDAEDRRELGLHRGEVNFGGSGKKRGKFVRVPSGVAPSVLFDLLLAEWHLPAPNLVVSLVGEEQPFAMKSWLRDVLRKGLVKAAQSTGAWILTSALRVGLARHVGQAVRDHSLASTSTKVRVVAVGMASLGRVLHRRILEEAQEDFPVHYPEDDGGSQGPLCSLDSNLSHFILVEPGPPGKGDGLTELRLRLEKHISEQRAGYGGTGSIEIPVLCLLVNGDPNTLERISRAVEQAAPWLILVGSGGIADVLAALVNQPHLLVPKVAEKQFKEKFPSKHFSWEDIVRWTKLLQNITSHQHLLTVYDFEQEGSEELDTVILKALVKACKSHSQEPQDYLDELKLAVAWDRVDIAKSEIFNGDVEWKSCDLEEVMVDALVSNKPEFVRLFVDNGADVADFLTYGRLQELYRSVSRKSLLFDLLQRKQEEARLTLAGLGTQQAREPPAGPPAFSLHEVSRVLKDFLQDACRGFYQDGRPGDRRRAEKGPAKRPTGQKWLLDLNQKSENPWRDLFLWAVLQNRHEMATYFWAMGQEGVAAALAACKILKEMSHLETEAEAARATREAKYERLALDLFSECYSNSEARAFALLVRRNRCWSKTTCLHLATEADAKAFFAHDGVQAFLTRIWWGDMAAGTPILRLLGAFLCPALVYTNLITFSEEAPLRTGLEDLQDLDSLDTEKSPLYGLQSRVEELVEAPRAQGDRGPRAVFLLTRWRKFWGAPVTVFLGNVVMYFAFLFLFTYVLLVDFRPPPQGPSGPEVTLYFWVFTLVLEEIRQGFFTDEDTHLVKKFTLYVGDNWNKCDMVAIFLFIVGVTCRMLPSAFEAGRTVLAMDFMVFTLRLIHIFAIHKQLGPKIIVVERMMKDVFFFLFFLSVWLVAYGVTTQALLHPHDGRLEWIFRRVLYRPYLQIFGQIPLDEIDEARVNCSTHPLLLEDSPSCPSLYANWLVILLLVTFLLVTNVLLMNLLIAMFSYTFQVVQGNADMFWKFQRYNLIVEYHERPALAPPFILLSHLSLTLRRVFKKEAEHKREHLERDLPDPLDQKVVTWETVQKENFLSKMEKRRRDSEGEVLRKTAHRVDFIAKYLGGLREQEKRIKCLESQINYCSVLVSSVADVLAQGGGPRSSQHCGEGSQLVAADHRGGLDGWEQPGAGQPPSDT
# Experiment: TRPM5 FLIPR membrane potential assay
# Assay type: cell-based
# Conditions: HEK293 cells stably expressing human TRPM5, membrane potential dye, stimulation with 3 μM ATP
# Method: The activity of human TRPM5 ion channel was measured in live cells on a fluorescent imaging plate reader (FLIPR). The basis of the assay (shown in FIG. 1) is the calcium-dependent activation of the ion channel which occurs by activation of a G-protein coupled receptor (GPCR). GPCR activation by an appropriate agonist causes a transient increase in […] Ca^2+ ion concentration which in turn causes the ion channel to open, letting in Na^+ ions. This influx causes a change in the membrane potential of the cell which can be monitored as a change in the fluorescent signal from voltage-dependent (membrane potential) fluorescent dyes. […] For the screening assay, the human TRPM5 gene was cloned, put into HEK293 cells, and a stable, high expression clone was used for screening. Cells were grown in standard media at 37° C. The day before screening, the cells were removed from flasks and added to 384 well clear bottom plates (8K cells in 20 μL/well). On the assay day, 20 μL of membrane potential dye (Part No. R8123, Molecular Devices Corp.) was added to the cells and dye was allowed to be taken up, i.e., load, into the cells for 1 hr at 37° C. […] The assay was started by addition of 10 μL of solution from the compound plate into the cell plate. During this process, continuous fluorescent recordings were made simultaneously for all wells. After addition of the compound solution, the tips were automatically washed and a stimulation solution of 3 μM ATP (an agonist for an endogenous purinurgic GPCR, was added to all wells of the cell plate. The height of the response was calculated and percent inhibition values, versus negative control wells, was calculated for the test samples. Unless otherwise indicated, the data in the table below were determined using the three assays described above, providing percent inhibition data at 10 μM.
row,IC50 [µM],SMILES
1,5,Nc1ccccc1P(=O)(c1ccccc1)c1ccccc1 [Example 4]
2,> 100,COc1ccccc1P(=O)(c1ccccc1)c1ccccc1 [Example 5]
3,> 100,CN(C)c1ccc(P(=O)(c2ccc(N(C)C)cc2)c2ccc(N(C)C)cc2)cc1 [Example 6]

# Further lines, the compound ahead of its results:
row,SMILES,IC50 [µM]
1,O=P(c1ccccc1)(c1ccccc1)c1ccccc1 [Example 1],5
2,O=P(c1ccccc1)(c1ccccc1)c1ccccc1O [Example 2],5
3,O=P(c1ccccc1)(c1ccccc1)c1ccc(O)cc1 [Example 3],5
